The values that follow come from US20220296676A1 (priority 2020, published 2022).

Series [1] in a line: in vitro. The conditions noted are these: human.
Series [2] has as its system human coronavirus (HCoV) 229E. Kind of series: microbe, parasite or virus in culture. The conditions noted are these: MRC5, 72 h.
Series [3] in a line: in vitro. As to conditions: human. This is another data set of the same source.

Compound `CCC(CC)COC(=O)[C@H](C)N[P@](=O)(OC[C@H]1O[C@@](C#N)(c2ccc3c(N)ncnn23)[C@H](O)[C@@H]1O)Oc1ccccc1` [Remdesivir, reference compound] yielded a CC50 in series [1] of 49.2 µM. The response in series [2] was half-maximal at 0.03 µM (EC50).
In series [3], `C/C=C/C[C@@H](C)[C@@H](O)[C@H]1C(=O)N[C@@H](CC)C(=O)N(C)[C@H](SCCN(C)C)C(=O)N(C)[C@@H](CC(C)(C)O)C(=O)N[C@@H](C(C)C)C(=O)N(C)[C@@H](CC(C)C)C(=O)N[C@@H](C)C(=O)N[C@H](C)C(=O)N(C)[C@@H](CC(C)C)C(=O)N(C)[C@@H](CC(C)C)C(=O)N(C)[C@@H](C(C)C)C(=O)N1C` [WS-635] showed a CC50 greater than 100 µM. In series [1], the CC50 at 3 days came out at 46.8 µM. The compound also displayed an EC50 in series [2] of 5.16 µM.

As a reminder, the EC50 is the concentration giving half of the maximal effect. Lower therefore signals higher potency in that assay.
